From patent US11779015B2, “Pesticide compositions” (FUNDACIÓ CENTRE DE REGULACIÓ GENÒMICA, priority 2017, dated 2023)

Assays:
[1] = tested on: D. suzukii larvae; assay: Survival and development of larvae in pre-infested blueberries; assay type: in vivo, Drosophila suzukii; settings: counted after 12 days
Procedure: To investigate the impact of (E)-2-hexenal on the emergence of D. suzukii, eight ripe, untreated blueberries were placed in the cage 60a together with adult D. suzukii flies for 4 days. All flies were then removed and discarded and half of the pre-infested blueberries was dipped into 10 mL of a 1%, 5% or 10% E-2-hexenal aqueous emulsion (as above), while the other half was dipped in 10 mL deionized water as a control. Survival of D. suzukii larvae was measured by counting the number of adult flies that emerged from the odour-treated blueberries versus the control condition after 12 days.
The percentage of adult fly emergence under the treated and untreated conditions relative to the sum of all flies that emerged under both conditions in each assay was calculated. The results of these experiments are shown on FIG. 6C (1% vol (E)-2-hexenal), FIG. 6D (5% vol. (E)-2-hexenal), and FIG. 6E (10% vol. (E)-2-hexenal).
Eight ripe, untreated blueberries were placed in a Petri dish at the bottom of a cylindrical plastic fly cage together with 20 mixed (10 females, 10 males) adult D. suzukii flies for 4 days. All flies were then removed and discarded and half of the pre-infested blueberries was dipped into 10 mL of a 1%, 5% or 10% (E)-2-hexenal aqueous emulsion, while the other half was dipped in 10 mL deionised water as a control. The blueberries were then left to air dry, then placed in empty fly vials with cotton lids and left at ambient room temperature conditions. Survival of D. suzukii larvae was measured by counting the number of adult flies that emerged from the odour-treated blueberries versus the control condition after 12 days. The assay was repeated 5 times.

[2] = tested on: larvae of the other species of the Drosophila melanogaster species group; assay: Fly larva chemotaxis assay; assay type: in vivo, Drosophila spp.; settings: 1% vol in paraffin oil, 5 minutes
Procedure: (§1) Larvae were exposed to 1% vol solution of (E)-2-hexenal or methyl benzoate in paraffin oil loaded onto the lid of a petri dish. Their movement was tracked for 5 minutes. A preference index was quantified as the fraction of time larvae spent in a zone around the odour sources. A population of 15 larvae were used per trial and they were placed in the centre of the petri dish at the start of the experiment. The average distance of the larvae to the odour sources was also quantified over time. The results of this analysis are shown on FIG. 9, for each of the conditions where a VOC of the invention was used. A total of 10 trials were performed for each condition, i.e. for each VOC and fly species, and 30 trials were performed for a control condition, for which only the solvent paraffin oil was applied.
(§2) Behavioural experiments were performed with third instar foraging larvae. A group of approximately 15 larvae per trial was placed in a Petri dish and monitored during 5 minutes for their chemotactic behaviour, as larvae were exposed to an odour gradient in gas phase emanating from the two odour sources on the lid of the Petri dish. […] Larval behaviour was tracked using a video camera and the data derived was then analysed in Matlab (MathWorks) using custom-made programs to calculate additional time-series variables, and to determine the preference index and the distance of larvae to the source.

[3] = tested on: honeybees (Apis mellifera); assay: Airborne toxicity on honeybees in the petri dish assay; assay type: in vivo; settings: applied concentration 4%, paraffin oil, 24 hours
[4] = tested on: D. melangaster larvae; assay: Fly larva chemotaxis assay; assay type: in vivo, Drosophila melanogaster; settings: D. melanogaster larvae, 1% vol in paraffin oil, 5 minutes
Procedure: as §1, §2

Row | Structure (SMILES) | adult fly emergence from pre-infested blueberries versus control ([1]; 1% vol aqueous emulsion dip) | adult fly emergence from pre-infested blueberries versus control ([1]; 5% vol aqueous emulsion dip) | adult fly emergence from pre-infested blueberries versus control ([1]; 10% vol aqueous emulsion dip) | larval chemotactic response [2] | Percentage of dead honey bee adults (%) [3] | larval chemotactic response [4]
1 | CCC/C=C/C=O [(E)-2-hexenal] | not statistically significantly (NS) different from the control condition | does not result in any adult fly emergence | does not result in any adult fly emergence | attractive chemotactic responses | 0% | –
2 | COC(=O)c1ccccc1 [methyl benzoate, Methyl benzoate] | – | – | – | – | – | attractive
